# According to publication PMC5430895 (Scientific Reports, 2017):
# How the values were obtained:
# RASF [1] = assay: PDGF-induced proliferation of cultured RASF (cell counting); format: cell-based, human; settings: 18 h, PDGF 10 ng/ml
# Experimental: Data are shown as mean ± SEM. […] Cells were grown at standard conditions. […] Cell number was evaluated with a […] cell counter (Roche Innovatis, Reutlingen, Germany).
# hOCT1 [2] = target: T1, hOCT1 (Homo sapiens, UniProt O15245); assay: Inhibition of ASP+ uptake in hOCT1-HEK293 cells (apparent affinity); format: cell-based; design: expressed in transfected cells; host or cells: HEK293; settings: hOCT1-HEK293, ASP+ 1 µM
# T1 sequence (O15245 1-554): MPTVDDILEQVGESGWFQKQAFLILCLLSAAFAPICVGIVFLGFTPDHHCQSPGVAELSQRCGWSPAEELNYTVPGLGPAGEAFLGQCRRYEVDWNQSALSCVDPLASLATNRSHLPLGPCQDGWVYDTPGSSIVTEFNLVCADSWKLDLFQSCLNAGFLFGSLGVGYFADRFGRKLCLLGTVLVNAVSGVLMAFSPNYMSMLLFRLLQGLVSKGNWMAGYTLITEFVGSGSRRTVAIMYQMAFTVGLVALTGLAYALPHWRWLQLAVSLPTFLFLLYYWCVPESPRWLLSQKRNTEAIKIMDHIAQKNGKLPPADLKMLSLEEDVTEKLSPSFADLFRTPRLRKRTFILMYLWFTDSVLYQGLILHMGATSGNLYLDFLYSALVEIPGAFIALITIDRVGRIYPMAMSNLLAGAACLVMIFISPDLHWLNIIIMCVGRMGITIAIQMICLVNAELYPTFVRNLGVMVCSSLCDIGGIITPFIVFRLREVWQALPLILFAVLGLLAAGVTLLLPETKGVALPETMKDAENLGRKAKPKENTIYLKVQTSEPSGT
# RASF [3] = assay: Saracatinib uptake in human RA synovial fibroblasts (HPLC-UV)
# Experimental: The kinetic parameters Km and V max values were estimated by least-square nonlinear regression analysis using GraphPadPrism 5 software.
# Unpaired student t-test was used for statistical analysis.
# Cells were grown at standard conditions. Synovial fibroblasts (SF) were isolated from tissues of patients with rheumatoid arthritis (RA) (n = 8) obtained during joint replacement surgery after written informed consent was obtained. This procedure was approved by the Ethics Committee of the University of Münster, Germany; all methods were performed in accordance with the relevant guidelines and regulations. […] RA patients met the American College of Rheumatology criteria. Isolated fibroblasts were cultured under standard conditions for a maximum of eight passages. When indicated, RASF were incubated with 10 ng/ml TNFα (PeproTech, Hamburg, Germany). Cell number was evaluated with a CASEYTT cell counter (Roche Innovatis, Reutlingen, Germany).
# After incubation, cells were washed with ice-cold PBS and hypoosmotic lysis was induced with 0.1% formic acid. […] The mobile phase consisted of (A) acetonitrile with 0.1% formic acid and (B) 0.1% formic acid and was delivered at 0.3 ml/min in a gradient program. After delivering 100% B for 3 min, a linear gradient to 100% A was applied within 7 min and maintained for 5 min. Thereafter, in order to re-equilibrate the column, a simple isocratic elution step with 100% eluent B was applied for at least 6 min. […] Separation was carried out on an Accucore C18 column equipped with a C18 guard column. The data were acquired by ChromQuest 5.0 chromatography software.
# hMATE1 = target: T2, hMATE1 (Homo sapiens, UniProt Q96FL8); assay: Saracatinib uptake in hMATE1-expressing HEK293 cells (HPLC-UV); settings: hMATE1-HEK293, 10 µM saracatinib, 10 min; not significantly different from WT
# T2 sequence (Q96FL8 1-570): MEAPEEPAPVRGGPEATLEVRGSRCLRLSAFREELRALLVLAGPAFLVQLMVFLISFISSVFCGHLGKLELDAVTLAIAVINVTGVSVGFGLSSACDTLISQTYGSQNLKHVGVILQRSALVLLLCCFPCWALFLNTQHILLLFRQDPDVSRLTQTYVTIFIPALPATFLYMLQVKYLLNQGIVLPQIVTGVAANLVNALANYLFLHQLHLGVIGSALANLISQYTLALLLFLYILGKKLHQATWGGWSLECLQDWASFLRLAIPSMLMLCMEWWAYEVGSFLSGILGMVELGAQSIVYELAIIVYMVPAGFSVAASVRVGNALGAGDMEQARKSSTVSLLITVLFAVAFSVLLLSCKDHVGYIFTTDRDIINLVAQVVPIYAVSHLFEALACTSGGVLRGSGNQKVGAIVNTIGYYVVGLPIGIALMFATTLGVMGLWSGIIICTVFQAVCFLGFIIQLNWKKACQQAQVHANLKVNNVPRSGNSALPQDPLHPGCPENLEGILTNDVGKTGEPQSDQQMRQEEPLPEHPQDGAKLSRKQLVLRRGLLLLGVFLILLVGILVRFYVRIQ
# hOCT1 [4] = target: T1, hOCT1; assay: Saracatinib uptake in hOCT1-overexpressing HEK293 cells (HPLC-UV); settings: hOCT1-HEK293, 10 µM saracatinib, 10 min, difference of accumulation at 4 °C and 37 °C
# hOCT2 = target: T3, hOCT2 (Homo sapiens, UniProt O15244); assay: Saracatinib uptake in hOCT2-overexpressing HEK293 cells (HPLC-UV); settings: hOCT2-HEK293, 10 µM saracatinib, 10 min, difference of accumulation at 4 °C and 37 °C
# T3 sequence (O15244 1-555): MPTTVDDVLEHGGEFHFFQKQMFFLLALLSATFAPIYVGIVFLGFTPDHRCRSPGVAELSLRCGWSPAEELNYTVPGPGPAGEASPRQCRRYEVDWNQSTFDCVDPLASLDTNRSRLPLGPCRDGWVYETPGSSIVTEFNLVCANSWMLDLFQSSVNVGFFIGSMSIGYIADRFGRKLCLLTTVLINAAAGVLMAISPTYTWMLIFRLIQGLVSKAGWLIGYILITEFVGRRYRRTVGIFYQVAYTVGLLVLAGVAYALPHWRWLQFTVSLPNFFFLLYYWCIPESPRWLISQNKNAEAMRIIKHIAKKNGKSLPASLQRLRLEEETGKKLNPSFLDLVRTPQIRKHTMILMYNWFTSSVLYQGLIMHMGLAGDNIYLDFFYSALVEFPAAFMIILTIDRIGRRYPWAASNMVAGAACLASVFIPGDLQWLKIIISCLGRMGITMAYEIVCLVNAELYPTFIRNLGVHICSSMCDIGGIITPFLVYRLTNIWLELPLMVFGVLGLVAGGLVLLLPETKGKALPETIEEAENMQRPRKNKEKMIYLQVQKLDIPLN
# hOCTN1 = target: T4, hOCTN1 (Homo sapiens, UniProt Q9H015); assay: Inhibition of ASP+ uptake in hOCTN1-HEK293 cells (apparent affinity); format: cell-based; design: expressed in transfected cells; host or cells: HEK293, expression induced with 1 mg/l doxycycline; settings: hOCTN1-HEK293, ASP+ 1 µM
# T4 sequence (Q9H015 1-551): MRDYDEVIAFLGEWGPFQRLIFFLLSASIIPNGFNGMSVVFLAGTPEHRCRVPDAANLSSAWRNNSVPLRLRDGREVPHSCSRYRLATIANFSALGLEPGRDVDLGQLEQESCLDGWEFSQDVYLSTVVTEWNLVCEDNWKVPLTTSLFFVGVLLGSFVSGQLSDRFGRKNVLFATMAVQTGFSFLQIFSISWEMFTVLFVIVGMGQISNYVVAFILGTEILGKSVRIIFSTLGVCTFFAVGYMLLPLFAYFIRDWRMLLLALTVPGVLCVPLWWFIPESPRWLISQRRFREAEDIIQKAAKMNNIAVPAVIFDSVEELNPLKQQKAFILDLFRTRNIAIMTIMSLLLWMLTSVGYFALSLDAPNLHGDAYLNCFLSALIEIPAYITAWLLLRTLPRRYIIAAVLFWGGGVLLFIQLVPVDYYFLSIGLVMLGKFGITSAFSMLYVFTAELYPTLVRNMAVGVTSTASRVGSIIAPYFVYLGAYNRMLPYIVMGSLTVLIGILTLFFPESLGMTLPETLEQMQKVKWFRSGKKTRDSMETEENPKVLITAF
compound,measurement,setting,value
"CN1CCN(CCOc2cc(OC3CCOCC3)c3c(Nc4c(Cl)ccc5c4OCO5)ncnc3c2)CC1 [saracatinib, N-(5-chloro-1,3-benzodioxol-4-yl)-7-[2-(4-methylpiperazin-1-yl)ethoxy]-5-(tetrahydro-2H-pyran-4-yloxy)quinazolin-4-amine]",inhibition of PDGF-induced cell proliferation,RASF [1]; 0.1 µM saracatinib,Complete inhibition
same,inhibition of PDGF-induced cell proliferation,RASF [1]; 0.001–1 µM saracatinib,potent and dose-dependent inhibition
same,IC50,hOCT1 [2],57 µM
same,influence of extracellular pH on saracatinib uptake,RASF [3]; RASF,pH-dependent
same,increase of saracatinib uptake versus untreated controls,RASF [3]; RASF treated for 18 h with TNFα (10 ng/ml),36 ± 5%
same,saracatinib transport capacity (Vmax),"RASF [3]; RASF, 10 min incubation",71.6 ± 4.1 nmol/mg protein/10 min
same,Km,"RASF [3]; read-out: Km of saracatinib uptake, RASF, 10 min incubation",39.4 ± 9.4 µM
same,saracatinib accumulation (specific uptake),hMATE1,2.3 ± 0.7 nmol/mg protein
same,saracatinib accumulation (specific uptake),hOCT1 [4],8.8 ± 0.9 nmol/mg protein
same,saracatinib accumulation (specific uptake),hOCT2,7.0 ± 0.5 nmol/mg protein
same,IC50,hOCTN1,0.072 µM
